In publication PMC10065276, “Enhanced therapeutic window for antimicrobial Pept-ins by investigating their structure-activity relationship” (PLOS ONE, 2023):
Residues, ends and D or L forms follow the SMILES beside them.

Tested on: E. coli BL21
Conditions: BL21, 17 h
In short: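 EUCAST broth microdilution in Mueller-Hinton medium; end-exponential culture diluted to 0.005 McF (~1.5x10^6 CFU/mL) before 1:1 mixing with two-fold peptide dilutions (0.75 to 100 μg/mL), triplicates.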

Point of comparison: `CC[C@H](C)[C@H](NC(=O)CNC(=O)[C@H](CC(C)C)NC(=O)[C@@H](N)CCCNC(=N)N)C(=O)N[C@@H](C)C(=O)N[C@H](C(=O)N[C@@H](C)C(=O)N[C@@H](CC(C)C)C(=O)N[C@@H](CCCNC(=N)N)C(=O)N[C@@H](CCCNC(=N)N)C(=O)N1CCC[C@H]1C(=O)N[C@@H](CCCNC(=N)N)C(=O)N[C@@H](CC(C)C)C(=O)N[C@@H](C)C(=O)N[C@H](C(=O)N[C@@H](C)C(=O)N[C@H](C(=O)N[C@@H](C)C(=O)N[C@@H](CC(C)C)C(=O)N[C@@H](CCCNC(=N)N)C(=O)N[C@@H](CCCNC(=N)N)C(=O)O)C(C)C)[C@@H](C)CC)C(C)C` [Peptide P33-G14A] (H-RLGIAVALRRPRLAIAVALRR-OH), “BL21 MIC” value 6.25 µg/mL. Against it:
- CC(C)C[C@H](NC(=O)CNC(=O)[C@H](CCCNC(=N)N)NC(=O)[C@@H]1CCCN1C(=O)[C@H](CCCNC(=N)N)NC(=O)[C@H](CCCNC(=N)N)NC(=O)[C@@H](NC(=O)[C@H](CC(C)C)NC(=O)[C@H](C)NC(=O)[C@H](CC(C)C)NC(=O)CNC(=O)[C@H](CC(C)C)NC(=O)CNC(=O)[C@@H](N)CCCNC(=N)N)C(C)C)C(=O)NCC(=O)N[C@@H](CC(C)C)C(=O)N[C@@H](C)C(=O)N[C@@H](CC(C)C)C(=O)N[C@H](C(=O)N[C@@H](C)C(=O)N[C@@H](CCCNC(=N)N)C(=O)O)C(C)C [Peptide P2_R20A] (H-RGLGLALVRRPRGLGLALVAR-OH) — the same, 6.25 µg/mL
- CC(C)C[C@H](NC(=O)CNC(=O)[C@H](CCCNC(=N)N)NC(=O)[C@@H]1CCCN1C(=O)[C@H](CCCNC(=N)N)NC(=O)[C@H](CCCNC(=N)N)NC(=O)[C@H](C)NC(=O)[C@H](CC(C)C)NC(=O)[C@H](C)NC(=O)[C@H](CC(C)C)NC(=O)CNC(=O)[C@H](CC(C)C)NC(=O)CNC(=O)[C@@H](N)CCCNC(=N)N)C(=O)NCC(=O)N[C@@H](CC(C)C)C(=O)N[C@@H](C)C(=O)N[C@@H](CC(C)C)C(=O)N[C@H](C(=O)N[C@@H](CCCNC(=N)N)C(=O)N[C@@H](CCCNC(=N)N)C(=O)O)C(C)C [Peptide P2_V8A] (H-RGLGLALARRPRGLGLALVRR-OH) — 4-fold higher, 25.00 µg/mL
- CC(C)C[C@H](NC(=O)CNC(=O)[C@H](CCCNC(=N)N)NC(=O)[C@@H]1CCCN1C(=O)[C@H](CCCNC(=N)N)NC(=O)[C@H](CCCNC(=N)N)NC(=O)[C@@H](NC(=O)[C@H](CC(C)C)NC(=O)[C@H](C)NC(=O)[C@H](CC(C)C)NC(=O)CNC(=O)[C@H](CC(C)C)NC(=O)CNC(=O)[C@@H](N)CCCNC(=N)N)C(C)C)C(=O)NCC(=O)N[C@@H](CC(C)C)C(=O)N[C@@H](C)C(=O)N[C@@H](CC(C)C)C(=O)N[C@@H](C)C(=O)N[C@@H](CCCNC(=N)N)C(=O)N[C@@H](CCCNC(=N)N)C(=O)O [Peptide P2_V19A] (H-RGLGLALVRRPRGLGLALARR-OH) — 4-fold higher, 25.00 µg/mL
- CC[C@H](C)[C@H](NC(=O)CNC(=O)[C@H](CC(C)C)NC(=O)[C@@H](N)CCCNC(=N)N)C(=O)N[C@@H](C)C(=O)N[C@H](C(=O)N[C@@H](C)C(=O)N[C@@H](C)C(=O)N[C@@H](CCCNC(=N)N)C(=O)N[C@@H](CCCNC(=N)N)C(=O)N1CCC[C@H]1C(=O)N[C@@H](CCCNC(=N)N)C(=O)N[C@@H](CC(C)C)C(=O)NCC(=O)N[C@H](C(=O)N[C@@H](C)C(=O)N[C@H](C(=O)N[C@@H](C)C(=O)N[C@@H](CC(C)C)C(=O)N[C@@H](CCCNC(=N)N)C(=O)N[C@@H](CCCNC(=N)N)C(=O)O)C(C)C)[C@@H](C)CC)C(C)C [Peptide P33-8LA] (H-RLGIAVAARRPRLGIAVALRR-OH) — the same, 6.25 µg/mL
- CC[C@H](C)[C@H](NC(=O)CNC(=O)[C@H](CC(C)C)NC(=O)[C@H](CCCNC(=N)N)NC(=O)[C@@H]1CCCN1C(=O)[C@H](CCCNC(=N)N)NC(=O)[C@H](CCCNC(=N)N)NC(=O)[C@H](CC(C)C)NC(=O)[C@H](C)NC(=O)[C@@H](NC(=O)[C@H](C)NC(=O)[C@@H](NC(=O)[C@H](C)NC(=O)[C@H](CC(C)C)NC(=O)[C@@H](N)CCCNC(=N)N)[C@@H](C)CC)C(C)C)C(=O)N[C@@H](C)C(=O)N[C@H](C(=O)N[C@@H](C)C(=O)N[C@@H](CC(C)C)C(=O)N[C@@H](CCCNC(=N)N)C(=O)N[C@@H](CCCNC(=N)N)C(=O)O)C(C)C [Peptide P33-G3A] (H-RLAIAVALRRPRLGIAVALRR-OH) — the same, 6.25 µg/mL
- CC[C@H](C)[C@H](NC(=O)CNC(=O)[C@H](CC(C)C)NC(=O)[C@H](CCCNC(=N)N)NC(=O)[C@@H]1CCCN1C(=O)[C@H](CCCNC(=N)N)NC(=O)[C@H](CCCNC(=N)N)NC(=O)[C@H](CC(C)C)NC(=O)[C@H](C)NC(=O)[C@@H](NC(=O)[C@H](C)NC(=O)[C@H](C)NC(=O)CNC(=O)[C@H](CC(C)C)NC(=O)[C@@H](N)CCCNC(=N)N)C(C)C)C(=O)N[C@@H](C)C(=O)N[C@H](C(=O)N[C@@H](C)C(=O)N[C@@H](CC(C)C)C(=O)N[C@@H](CCCNC(=N)N)C(=O)N[C@@H](CCCNC(=N)N)C(=O)O)C(C)C [Peptide P33-I4A] (H-RLGAAVALRRPRLGIAVALRR-OH) — 2-fold higher, 12.50 µg/mL
- CC[C@H](C)[C@H](NC(=O)CNC(=O)[C@H](CC(C)C)NC(=O)[C@@H](N)CCCNC(=N)N)C(=O)N[C@@H](C)C(=O)N[C@H](C(=O)N[C@@H](C)C(=O)N[C@@H](CC(C)C)C(=O)N[C@@H](CCCNC(=N)N)C(=O)N[C@@H](CCCNC(=N)N)C(=O)N1CCC[C@H]1C(=O)N[C@@H](CCCNC(=N)N)C(=O)N[C@@H](CC(C)C)C(=O)NCC(=O)N[C@@H](C)C(=O)N[C@@H](C)C(=O)N[C@H](C(=O)N[C@@H](C)C(=O)N[C@@H](CC(C)C)C(=O)N[C@@H](CCCNC(=N)N)C(=O)N[C@@H](CCCNC(=N)N)C(=O)O)C(C)C)C(C)C [Peptide P33-I15A] (H-RLGIAVALRRPRLGAAVALRR-OH) — 2-fold higher, 12.50 µg/mL
- CC[C@H](C)[C@H](NC(=O)CNC(=O)[C@H](CC(C)C)NC(=O)[C@H](CCCNC(=N)N)NC(=O)[C@@H]1CCCN1C(=O)[C@H](CCCNC(=N)N)NC(=O)[C@H](CCCNC(=N)N)NC(=O)[C@H](CC(C)C)NC(=O)[C@H](C)NC(=O)[C@@H](NC(=O)[C@H](C)NC(=O)[C@@H](NC(=O)CNC(=O)[C@H](C)NC(=O)[C@@H](N)CCCNC(=N)N)[C@@H](C)CC)C(C)C)C(=O)N[C@@H](C)C(=O)N[C@H](C(=O)N[C@@H](C)C(=O)N[C@@H](CC(C)C)C(=O)N[C@@H](CCCNC(=N)N)C(=O)N[C@@H](CCCNC(=N)N)C(=O)O)C(C)C [Peptide P33-L2A] (H-RAGIAVALRRPRLGIAVALRR-OH) — 2-fold higher, 12.50 µg/mL
- CC[C@H](C)[C@H](NC(=O)CNC(=O)[C@H](C)NC(=O)[C@H](CCCNC(=N)N)NC(=O)[C@@H]1CCCN1C(=O)[C@H](CCCNC(=N)N)NC(=O)[C@H](CCCNC(=N)N)NC(=O)[C@H](CC(C)C)NC(=O)[C@H](C)NC(=O)[C@@H](NC(=O)[C@H](C)NC(=O)[C@@H](NC(=O)CNC(=O)[C@H](CC(C)C)NC(=O)[C@@H](N)CCCNC(=N)N)[C@@H](C)CC)C(C)C)C(=O)N[C@@H](C)C(=O)N[C@H](C(=O)N[C@@H](C)C(=O)N[C@@H](CC(C)C)C(=O)N[C@@H](CCCNC(=N)N)C(=O)N[C@@H](CCCNC(=N)N)C(=O)O)C(C)C [Peptide P33-L13A] (H-RLGIAVALRRPRAGIAVALRR-OH) — the same, 6.25 µg/mL
- CC[C@H](C)[C@H](NC(=O)CNC(=O)[C@H](CC(C)C)NC(=O)[C@H](CCCNC(=N)N)NC(=O)[C@@H]1CCCN1C(=O)[C@H](CCCNC(=N)N)NC(=O)[C@H](CCCNC(=N)N)NC(=O)[C@H](CC(C)C)NC(=O)[C@H](C)NC(=O)[C@@H](NC(=O)[C@H](C)NC(=O)[C@@H](NC(=O)CNC(=O)[C@H](CC(C)C)NC(=O)[C@@H](N)CCCNC(=N)N)[C@@H](C)CC)C(C)C)C(=O)N[C@@H](C)C(=O)N[C@H](C(=O)N[C@@H](C)C(=O)N[C@@H](C)C(=O)N[C@@H](CCCNC(=N)N)C(=O)N[C@@H](CCCNC(=N)N)C(=O)O)C(C)C [Peptide P33-L19A] (H-RLGIAVALRRPRLGIAVAARR-OH) — the same, 6.25 µg/mL
- CC[C@H](C)[C@H](NC(=O)CNC(=O)[C@H](CC(C)C)NC(=O)[C@H](CCCNC(=N)N)NC(=O)[C@@H]1CCCN1C(=O)[C@H](CCCNC(=N)N)NC(=O)[C@H](CCCNC(=N)N)NC(=O)[C@H](CC(C)C)NC(=O)[C@H](C)NC(=O)[C@@H](NC(=O)[C@H](C)NC(=O)[C@@H](NC(=O)CNC(=O)[C@H](CC(C)C)NC(=O)[C@H](C)N)[C@@H](C)CC)C(C)C)C(=O)N[C@@H](C)C(=O)N[C@H](C(=O)N[C@@H](C)C(=O)N[C@@H](CC(C)C)C(=O)N[C@@H](CCCNC(=N)N)C(=O)N[C@@H](CCCNC(=N)N)C(=O)O)C(C)C [Peptide P33-R1A] (H-ALGIAVALRRPRLGIAVALRR-OH) — the same, 6.25 µg/mL
- CC[C@H](C)[C@H](NC(=O)CNC(=O)[C@H](CC(C)C)NC(=O)[C@@H](N)CCCNC(=N)N)C(=O)N[C@@H](C)C(=O)N[C@H](C(=O)N[C@@H](C)C(=O)N[C@@H](CC(C)C)C(=O)N[C@@H](C)C(=O)N[C@@H](CCCNC(=N)N)C(=O)N1CCC[C@H]1C(=O)N[C@@H](CCCNC(=N)N)C(=O)N[C@@H](CC(C)C)C(=O)NCC(=O)N[C@H](C(=O)N[C@@H](C)C(=O)N[C@H](C(=O)N[C@@H](C)C(=O)N[C@@H](CC(C)C)C(=O)N[C@@H](CCCNC(=N)N)C(=O)N[C@@H](CCCNC(=N)N)C(=O)O)C(C)C)[C@@H](C)CC)C(C)C [Peptide P33-R9A] (H-RLGIAVALARPRLGIAVALRR-OH) — the same, 6.25 µg/mL

For `CC(C)C[C@H](NC(=O)CNC(=O)[C@H](CCCNC(=N)N)NC(=O)[C@@H]1CSSC[C@H](NC(=O)[C@@H](NC(=O)[C@H](CC(C)C)NC(=O)[C@H](C)NC(=O)[C@H](CC(C)C)NC(=O)CNC(=O)[C@H](CC(C)C)NC(=O)CNC(=O)[C@@H](N)CCCNC(=N)N)C(C)C)C(=O)N[C@@H](CCCNC(=N)N)C(=O)N[C@@H](CCCNC(=N)N)C(=O)N2CCC[C@H]2C(=O)N1)C(=O)NCC(=O)N[C@@H](CC(C)C)C(=O)N[C@@H](C)C(=O)N[C@@H](CC(C)C)C(=O)N[C@H](C(=O)N[C@@H](CCCNC(=N)N)C(=O)N[C@@H](CCCNC(=N)N)C(=O)O)C(C)C` [Peptide P2_var9], the “BL21 MIC, SS bond” value was 6.25 µg/mL.

In the case of `CC(C)C[C@H](NC(=O)CNC(=O)[C@H](CCCNC(=N)N)NC(=O)[C@@H]1CSSC[C@H](NC(=O)[C@@H](NC(=O)[C@H](CC(C)C)NC(=O)[C@H](C)NC(=O)[C@H](CC(C)C)NC(=O)CNC(=O)[C@H](CC(C)C)NC(=O)CNC(=O)[C@@H](N)CCCNC(=N)N)C(C)C)C(=O)N[C@@H](CCCNC(=N)N)C(=O)N[C@@H](CCCNC(=N)N)C(=O)N2CCC[C@H]2C(=O)N1)C(=O)NCC(=O)N[C@@H](CC(C)C)C(=O)N[C@@H](C)C(=O)N[C@@H](CC(C)C)C(=O)N[C@H](C(=O)N[C@@H](CCCNC(=N)N)C(=O)N[C@@H](CCCNC(=N)N)C(=O)O)C(C)C` [Peptide P2_var9], the “BL21 MIC, no SS bond” value is reported as 6.25 µg/mL.
